Assay results as given in BigSolDB 2.1.

C=C1CC[C@H](O)C/C1=C/C=C1\CCC[C@]2(C)[C@@H]([C@H](C)CCCC(C)C)CC[C@@H]12
solubility (mole fraction)
Details	in DMSO	in ethanol	in ethyl acetate	in ethylene glycol	in isopropanol	in n-butanol	in propylene glycol	in sec-butanol	in transcutol	in water
273.2 K	0.0041	0.136	0.0904	0.000113	0.19	0.151	0.00142	0.154	0.369	1.87e-07
278.2 K	0.00469	0.144	0.109	0.000161	0.202	0.157	0.00176	0.161	0.375	2.9e-07
283.2 K	0.00533	0.153	0.131	0.000234	0.215	0.163	0.00209	0.168	0.382	4.22e-07
288.2 K	0.00601	0.162	0.15	0.000318	0.225	0.169	0.00249	0.176	0.39	5.67e-07
298.2 K	0.00723	0.177	0.195	0.000524	0.245	0.169	0.00337	0.187	0.403	1.03e-06

Details	solubility (mole fraction)
in PEG-400, 273.2 K	0.0135
in PEG-400, 278.2 K	0.0162
in PEG-400, 283.2 K	0.0191
in PEG-400, 288.2 K	0.0222
in PEG-400, 298.2 K	0.0291
